Biological target: T1, glucokinase (GK) enzyme (Homo sapiens, UniProt P35557)
T1 sequence (P35557 1-465): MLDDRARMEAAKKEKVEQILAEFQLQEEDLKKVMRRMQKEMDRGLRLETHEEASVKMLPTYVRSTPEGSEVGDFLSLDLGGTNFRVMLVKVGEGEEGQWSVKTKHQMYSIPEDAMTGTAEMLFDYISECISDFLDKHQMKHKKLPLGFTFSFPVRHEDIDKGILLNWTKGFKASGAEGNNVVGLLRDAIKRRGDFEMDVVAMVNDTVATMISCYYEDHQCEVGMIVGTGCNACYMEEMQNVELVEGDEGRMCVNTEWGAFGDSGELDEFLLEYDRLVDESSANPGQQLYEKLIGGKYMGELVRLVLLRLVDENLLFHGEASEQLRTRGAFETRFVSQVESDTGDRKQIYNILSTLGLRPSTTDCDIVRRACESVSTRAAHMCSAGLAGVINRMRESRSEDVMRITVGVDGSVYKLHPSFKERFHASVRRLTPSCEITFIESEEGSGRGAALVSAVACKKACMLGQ
Assay: In-vitro glucokinase (GK) enzyme activation assay (coupled with glucose-6-phosphate dehydrogenase, absorbance at 340)
Format: biochemical
Details: glucose 2.5 mM, ATP 1 mM; for activity at 0.1 µM / activity at 1 µM / activity at 5 µM / activity at 10 µM: read-out: % of GK activity wrt DMSO; for EC50: GK activation
Method: The compound of the invention was incubated with glucokinase (GK) enzyme (0.2 units) for 10 minutes in assay buffer at 26° C. After incubation, addition of glucose-6-phosphate dehydrogenase (2.5 units), ATP (1 mM) and glucose (2.5 mM). Absorbance is measured at 340 nm for 15 minutes with 10 second interval using UV transparent plate in kinetic mode on Spectramax-190 at 30° C.

SMILES	activity at 0.1 µM (compound 0.1 uM) [%]	activity at 1 µM (compound 1 uM) [%]	activity at 5 µM (compound 5 uM) [%]	activity at 10 µM (compound 10 uM) [%]	EC50 [nM]	% of GK activity wrt DMSO (compound 0.1 uM) [%]	% of GK activity wrt DMSO (compound 1 uM) [%]	% of GK activity wrt DMSO (compound 5 uM) [%]	% of GK activity wrt DMSO (compound 10 uM) [%]
COC(C)CCOc1cc(Oc2ccc(-c3nnc(C)o3)cc2)cc(C(=O)Nc2nccs2)c1 (centres unmarked) [Example 1.7, 3-(3-Methoxybutoxy)-5-(4-(5-methyl-1,3,4-oxadiazol-2-yl)phenoxy)-N-(thiazol-2-yl)benzamide]	164	228	245	236					
Cc1nnc(-c2ccc(Oc3cc(OCC4CC4)cc(C(=O)Nc4nccs4)c3)cc2)o1 [Example 1.5, 3-(Cyclopropylmethoxy)-5-(4-(5-methyl-1,3,4-oxadiazol-2-yl)phenoxy)-N-(thiazol-2-yl)benzamide]	234	292	305	293	88				
Cc1nnc(-c2ccc(Oc3cc(OCC(C)C)cc(C(=O)Nc4nccs4)c3)cc2)o1 [Example 2.5, 3-Isobutoxy-5-(4-(5-methyl-1,3,4-oxadiazol-2-yl)phenoxy)-N-(thiazol-2-yl)benzamide]	195	256	282	278	103				
Cc1nnc(-c2ccc(Oc3cc(OCC4CCC5(CC5)C4)cc(C(=O)Nc4nccs4)c3)cc2)o1 (centres unmarked) [Example 1.6, 3-(4-(5-Methyl-1,3,4-oxadiazol-2-yl)phenoxy)-5-(spiro[2.4]heptan-5-ylmethoxy)-N-(thiazol-2-yl)benzamide]	134	178	183	165					
Cc1nnc(-c2ccc(Oc3cc(OCC45CC6CC(CC(C6)C4)C5)cc(C(=O)Nc4nccs4)c3)cc2)o1 [Example 1.9, 3-(4-(5-Methyl-1,3,4-oxadiazol-2-yl)phenoxy)-5-(admantanemethoxy)-N-(thiazol-2-yl)benzamide]						121.83	137.7	141.3	153.4
COCC(C)Oc1ccc(Oc2ccc(-c3nnc(C)o3)cc2)cc1C(=O)Nc1nccs1 (centres unmarked) [Example 1.3, 2-(1-Methoxypropan-2-yloxy)-5-(4-(5-methyl-1,3,4-oxadiazol-2-yl)phenoxy)-N-(thiazol-2-yl)benzamide]	99.8	96.8	110	107					
C=CCCOc1cc(Oc2ccc(-c3nnc(C)o3)cc2)cc(C(=O)Nc2nccs2)c1 [Example 1.2, 3-(But-3-enyloxy)-5-(4-(5-methyl-1,3,4-oxadiazol-2-yl)phenoxy)-N-(thiazol-2-yl)benzamide]	167	229	242	244	81				
Cc1nnc(-c2ccc(Oc3cc(OC(C)C4CC4)cc(C(=O)Nc4nccs4)c3)cc2)o1 (centres unmarked) [Example 1.4, 3-(1-Cyclopropylethoxy)-5-(4-(5-methyl-1,3,4-oxadiazol-2-yl)phenoxy)-N-(thiazol-2-yl)benzamide]	282	313	314	311	23				

Now from value to compound:

activity at 0.1 µM (compound 0.1 uM) [%]	activity at 1 µM (compound 1 uM) [%]	activity at 5 µM (compound 5 uM) [%]	activity at 10 µM (compound 10 uM) [%]	EC50 [nM]	% of GK activity wrt DMSO (compound 0.1 uM) [%]	% of GK activity wrt DMSO (compound 1 uM) [%]	% of GK activity wrt DMSO (compound 5 uM) [%]	% of GK activity wrt DMSO (compound 10 uM) [%]	SMILES
140	176	302	144						C=CCCOc1cc(Oc2ccc(-c3nnc(C)o3)cc2)cc(C(=O)Nc2nc(C)cs2)c1 [Example 2.12, 3-(But-3-en-1-yloxy)-5-(4-(5-methyl-1,3,4-oxadiazol-2-yl)phenoxy)-N-(4-methylthiazol-2-yl)benzamide]
101	144	201	205						CCOC(=O)c1cnc(NC(=O)c2cc(Oc3ccc(-c4nnc(C)o4)cc3)cc(OC(C)COC)c2)s1 (centres unmarked) [Example 2.16, Ethyl 2-{3-[(1-methoxypropan-2-yl)oxy]-5-[4-(5-methyl-1,3,4-oxadiazol-2-yl)phenoxy]benzamido}thiazole-5-carboxylate]
271	267	271	282	14					COC[C@H](C)Oc1cc(Oc2ccc(-c3nnc(C)o3)cc2)cc(C(=O)Nc2nccs2)c1 [Example 2.1, (S)-3-(1-Methoxypropan-2-yloxy)-5-(4-(5-methyl-1,3,4-oxadiazol-2-yl)phenoxy)-N-(thiazol-2-yl)benzamide]
123	137	148	150						Cc1csc(NC(=O)c2cc(OCC3CCCCC3)cc(Oc3ccc(-c4nnc(C)o4)cc3)c2)n1 [Example 2.3, 3-(Cyclohexylmethoxy)-5-(4-(5-methyl-1,3,4-oxadiazol-2-yl)phenoxy)-N-(4-methylthiazol-2-yl)benzamide]
146	178	193	192	316					Cc1nnc(-c2ccc(Oc3cc(OCC4CCCCC4)cc(C(=O)Nc4nccs4)c3)cc2)o1 [Example 2.2, 3-(Cyclohexylmethoxy)-5-(4-(5-methyl-1,3,4-oxadiazol-2-yl)phenoxy)-N-(thiazol-2-yl)benzamide]
113	170	306	350						COCC(C)Oc1cc(Oc2ccc(-c3nnc(C)o3)cc2)cc(C(=O)Nc2nc(C(=O)O)cs2)c1 (centres unmarked) [Example 2.17, 2-{3-[(1-Methoxypropan-2-yl)oxy]-5-[4-(5-methyl-1,3,4-oxadiazol-2-yl)phenoxy]benzamido}thiazole-4-carboxylic acid]
106	188	318	344						CCOC(=O)c1csc(NC(=O)c2cc(Oc3ccc(-c4nnc(C)o4)cc3)cc(OC(C)COC)c2)n1 (centres unmarked) [Example 2.19, Ethyl 2-{3-[(1-methoxypropan-2-yl)oxy]-5-[4-(5-methyl-1,3,4-oxadiazol-2-yl)phenoxy]benzamido}thiazole-4-carboxylate]
105	164	239	266						COC[C@@H](C)Oc1cc(Oc2ccc(-c3nnc(C)o3)cc2)cc(C(=O)Nc2nccs2)c1 [Example 2.15, (R)-3-(1-Methoxypropan-2-yloxy)-5-(4-(5-methyl-1,3,4-oxadiazol-2-yl)phenoxy)-N-(thiazol-2-yl)benzamide]
251	278	283	279						COCC(C)Oc1cc(Oc2ccc(-c3nnc(C)o3)cc2)cc(C(=O)Nc2ncc(C)s2)c1 (centres unmarked) [Example 2.9, 3-((1-Methoxypropan-2-yl)oxy)-5-(4-(5-methyl-1,3,4-oxadiazol-2-yl)phenoxy)-N-(5-methylthiazol-2-yl)benzamide]
240	284	324	311	64					C=CCOc1cc(Oc2ccc(-c3nnc(C)o3)cc2)cc(C(=O)Nc2nccs2)c1 [Example 2.4, 3-(Allyloxy)-5-(4-(5-methyl-1,3,4-oxadiazol-2-yl)phenoxy)-N-(thiazol-2-yl)benzamide]
126	223	306	333						COC[C@H](C)Oc1cc(Oc2ccc(-c3nnc(C)o3)cc2)cc(C(=O)Nc2ncc(C#N)s2)c1 [Example 2.42, (S)—N-(5-Cyanothiazol-2-yl)-3-((1-methoxypropan-2-yl)oxy)-5-(4-(5-methyl-1,3,4-oxadiazol-2-yl)phenoxy)benzamide]
179	287	318	293						COCC(C)Oc1cc(Oc2cccc(-c3nnc(C)o3)c2)cc(C(=O)Nc2nccs2)c1 (centres unmarked) [Example 2.21, 3-((1-Methoxypropan-2-yl)oxy)-5-(3-(5-methyl-1,3,4-oxadiazol-2-yl)phenoxy)-N-(thiazole-2-yl)benzamide]
210	271	316	302						COCC(C)Oc1cc(Oc2ccc(-c3nnc(C)o3)cc2)cc(C(=O)Nc2ncc(Br)s2)c1 (centres unmarked) [Example 2.36, N-(5-Bromothiazol-2-yl)-3-((1-methoxypropan-2-yl)oxy)-5-(4-(5-methyl-1,3,4-oxadiazol-2-yl)phenoxy)benzamide]
153	323	436	418						COCC(C)Oc1cc(Oc2ccc(-c3nnc(CC(C)C)o3)cc2)cc(C(=O)Nc2nccs2)c1 (centres unmarked) [Example 2.22, 3-(4-(5-Isobutyl-1,3,4-oxadiazol-2-yl)phenoxy)-5-((1-methoxypropan-2-yl)oxy)-N-(thiazol-2-yl)benzamide]
